Source: patent US9896435B2, “N-pyrrolidinyl,N′-pyrazolyl-urea, thiourea, guanidine and cyanoguanidine compounds as TrkA kinase inhibitors” (Array BioPharma Inc., priority 2012, dated 2018)

What was measured:
Experiment in all cases: KinaseProfiler off-target kinase profiling
Assay type in all cases: biochemical
Details in all cases: 10 μM, ATP near Km
MKK6 = MKK6 (Homo sapiens (Human), UniProt P52564)
Description: (§1) Two representative compounds (Example 2, 14) of the invention were tested for off-target kinase activity at a concentration of 10 μM by Millipore, Inc. in their KinaseProfiler™ service against all the kinases available in their full kinase panel. These compounds were run in duplicate at a concentration of ATP near the Km for each individual kinase according to Millipore's specifications. The results are shown in Table B. Data are reported as percent of control (POC) and are the average of the two replicates.

TSSK1 = TSSK1 (Homo sapiens (Human), UniProt Q9BXA7)
Sequence of TSSK1 (Q9BXA7 whole entry): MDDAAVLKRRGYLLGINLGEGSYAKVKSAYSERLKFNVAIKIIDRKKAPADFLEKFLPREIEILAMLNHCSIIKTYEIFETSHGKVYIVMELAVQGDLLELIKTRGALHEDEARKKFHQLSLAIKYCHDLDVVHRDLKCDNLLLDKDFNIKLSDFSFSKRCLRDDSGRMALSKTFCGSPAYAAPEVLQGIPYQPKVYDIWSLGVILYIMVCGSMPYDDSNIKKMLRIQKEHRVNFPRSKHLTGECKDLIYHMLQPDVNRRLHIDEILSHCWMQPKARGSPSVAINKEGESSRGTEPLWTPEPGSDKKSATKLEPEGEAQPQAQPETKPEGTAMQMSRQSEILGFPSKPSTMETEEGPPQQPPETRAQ
Description: as §1

PrKX = PrKX (Homo sapiens (Human), UniProt P51817)
Description: as §1

HIPK2 = HIPK2 (Homo sapiens (Human), UniProt Q9H2X6)
Description: as §1

FGFR4 = FGFR4 (Homo sapiens (Human), UniProt P22455)
Description: as §1

IGF-1R Activated = IGF-1R Activated (Homo sapiens (Human), UniProt P08069)
Description: as §1

MKK7 = MKK7 (Homo sapiens (Human), UniProt O14733)
Description: as §1

ErbB4 = ErbB4 (Homo sapiens (Human), UniProt Q15303)
Sequence of ErbB4 (Q15303 26-1308): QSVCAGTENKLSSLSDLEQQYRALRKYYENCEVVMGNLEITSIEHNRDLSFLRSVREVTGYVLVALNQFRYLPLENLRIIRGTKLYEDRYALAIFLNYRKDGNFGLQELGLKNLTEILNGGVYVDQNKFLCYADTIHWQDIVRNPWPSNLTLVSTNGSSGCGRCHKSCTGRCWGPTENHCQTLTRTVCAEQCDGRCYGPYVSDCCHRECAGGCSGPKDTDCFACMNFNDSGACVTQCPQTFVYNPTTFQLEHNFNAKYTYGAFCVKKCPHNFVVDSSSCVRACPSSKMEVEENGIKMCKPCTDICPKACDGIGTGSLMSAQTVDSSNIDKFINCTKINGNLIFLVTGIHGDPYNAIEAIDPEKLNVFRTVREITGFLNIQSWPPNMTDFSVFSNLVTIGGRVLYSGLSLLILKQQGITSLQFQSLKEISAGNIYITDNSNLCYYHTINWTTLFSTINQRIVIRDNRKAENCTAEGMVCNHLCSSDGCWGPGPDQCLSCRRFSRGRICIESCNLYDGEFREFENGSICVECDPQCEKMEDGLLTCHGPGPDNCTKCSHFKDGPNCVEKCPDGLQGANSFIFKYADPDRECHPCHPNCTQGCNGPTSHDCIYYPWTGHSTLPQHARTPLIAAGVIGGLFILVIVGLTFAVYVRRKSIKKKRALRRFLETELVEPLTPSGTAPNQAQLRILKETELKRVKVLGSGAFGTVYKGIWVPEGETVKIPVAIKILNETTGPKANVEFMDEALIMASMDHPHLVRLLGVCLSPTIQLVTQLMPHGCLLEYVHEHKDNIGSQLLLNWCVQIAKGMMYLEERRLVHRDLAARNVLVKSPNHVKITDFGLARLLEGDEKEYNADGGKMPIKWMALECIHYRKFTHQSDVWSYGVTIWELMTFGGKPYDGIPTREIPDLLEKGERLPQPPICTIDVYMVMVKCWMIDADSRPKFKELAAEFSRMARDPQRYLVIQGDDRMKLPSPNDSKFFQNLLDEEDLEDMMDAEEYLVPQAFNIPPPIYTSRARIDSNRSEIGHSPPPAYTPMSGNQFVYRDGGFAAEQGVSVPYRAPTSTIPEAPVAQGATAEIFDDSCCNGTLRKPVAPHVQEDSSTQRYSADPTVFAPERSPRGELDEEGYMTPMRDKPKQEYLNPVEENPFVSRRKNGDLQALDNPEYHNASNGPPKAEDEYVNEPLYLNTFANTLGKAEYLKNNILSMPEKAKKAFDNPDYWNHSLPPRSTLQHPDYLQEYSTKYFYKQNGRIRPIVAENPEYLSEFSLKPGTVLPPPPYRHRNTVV
Description: as §1

EphB4 = EphB4 (Homo sapiens (Human), UniProt P54760)
Description: as §1

RIPK2 = RIPK2 (Homo sapiens (Human), UniProt O43353)
Description: as §1

NEK11 = NEK11 (Homo sapiens (Human), UniProt Q8NG66)
Description: as §1

Ron = Ron (Homo sapiens (Human), UniProt Q04912)
Description: as §1

ITK = ITK (Homo sapiens (Human), UniProt Q08881)
Description: as §1

CDK2/cyclinE = CDK2/cyclinE (Homo sapiens (Human), UniProt P24941)
Description: as §1

CLK2 = CLK2 (Homo sapiens (Human), UniProt P49760)
Sequence of CLK2 (P49760 whole entry): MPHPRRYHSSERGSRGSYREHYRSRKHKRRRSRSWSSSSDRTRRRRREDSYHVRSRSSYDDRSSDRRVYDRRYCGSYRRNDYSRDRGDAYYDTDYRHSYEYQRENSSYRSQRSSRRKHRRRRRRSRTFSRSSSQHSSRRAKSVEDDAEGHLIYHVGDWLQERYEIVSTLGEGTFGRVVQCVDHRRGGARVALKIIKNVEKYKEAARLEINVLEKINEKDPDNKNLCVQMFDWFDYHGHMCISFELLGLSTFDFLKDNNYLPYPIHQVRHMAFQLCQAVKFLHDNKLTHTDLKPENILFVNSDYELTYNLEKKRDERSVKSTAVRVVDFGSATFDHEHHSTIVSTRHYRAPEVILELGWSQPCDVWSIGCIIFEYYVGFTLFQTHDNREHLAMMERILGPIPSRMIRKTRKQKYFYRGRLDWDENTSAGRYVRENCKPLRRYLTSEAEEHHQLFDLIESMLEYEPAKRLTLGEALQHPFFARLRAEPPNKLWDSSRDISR
Description: as §1

CLK3 = CLK3 (Homo sapiens (Human), UniProt P49761)
Description: as §1

BrSK1 = BrSK1 (Homo sapiens (Human), UniProt Q8TDC3)
Description: as §1

TrkA = TrkA (Homo sapiens (Human), UniProt P04629)
Sequence of TrkA (P04629 33-796): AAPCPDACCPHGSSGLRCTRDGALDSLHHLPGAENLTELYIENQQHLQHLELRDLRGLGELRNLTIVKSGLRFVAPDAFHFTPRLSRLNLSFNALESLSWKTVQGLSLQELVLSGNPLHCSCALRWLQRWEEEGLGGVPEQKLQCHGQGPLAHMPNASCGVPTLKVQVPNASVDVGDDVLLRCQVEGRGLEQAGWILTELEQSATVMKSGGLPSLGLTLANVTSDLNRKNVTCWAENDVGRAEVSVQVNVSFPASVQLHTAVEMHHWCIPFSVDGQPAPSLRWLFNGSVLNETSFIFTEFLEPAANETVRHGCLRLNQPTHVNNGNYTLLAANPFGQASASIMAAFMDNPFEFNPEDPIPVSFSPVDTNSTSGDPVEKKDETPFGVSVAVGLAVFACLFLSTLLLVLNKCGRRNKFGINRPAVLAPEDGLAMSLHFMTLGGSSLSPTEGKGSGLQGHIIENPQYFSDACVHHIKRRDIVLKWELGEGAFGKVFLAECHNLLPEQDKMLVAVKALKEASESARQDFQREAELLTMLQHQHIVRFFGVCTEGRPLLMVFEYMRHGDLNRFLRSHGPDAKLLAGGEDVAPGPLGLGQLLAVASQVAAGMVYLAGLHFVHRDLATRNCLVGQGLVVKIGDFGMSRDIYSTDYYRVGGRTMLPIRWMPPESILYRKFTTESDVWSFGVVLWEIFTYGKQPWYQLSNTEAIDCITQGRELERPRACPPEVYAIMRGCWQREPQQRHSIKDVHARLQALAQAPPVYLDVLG
Description: as §1

PKCalpha = PKCalpha (Homo sapiens (Human), UniProt P17252)
Description: as §1

Tie2 = Tie2 (Homo sapiens (Human), UniProt Q02763)
Sequence of Tie2 (Q02763 23-1124): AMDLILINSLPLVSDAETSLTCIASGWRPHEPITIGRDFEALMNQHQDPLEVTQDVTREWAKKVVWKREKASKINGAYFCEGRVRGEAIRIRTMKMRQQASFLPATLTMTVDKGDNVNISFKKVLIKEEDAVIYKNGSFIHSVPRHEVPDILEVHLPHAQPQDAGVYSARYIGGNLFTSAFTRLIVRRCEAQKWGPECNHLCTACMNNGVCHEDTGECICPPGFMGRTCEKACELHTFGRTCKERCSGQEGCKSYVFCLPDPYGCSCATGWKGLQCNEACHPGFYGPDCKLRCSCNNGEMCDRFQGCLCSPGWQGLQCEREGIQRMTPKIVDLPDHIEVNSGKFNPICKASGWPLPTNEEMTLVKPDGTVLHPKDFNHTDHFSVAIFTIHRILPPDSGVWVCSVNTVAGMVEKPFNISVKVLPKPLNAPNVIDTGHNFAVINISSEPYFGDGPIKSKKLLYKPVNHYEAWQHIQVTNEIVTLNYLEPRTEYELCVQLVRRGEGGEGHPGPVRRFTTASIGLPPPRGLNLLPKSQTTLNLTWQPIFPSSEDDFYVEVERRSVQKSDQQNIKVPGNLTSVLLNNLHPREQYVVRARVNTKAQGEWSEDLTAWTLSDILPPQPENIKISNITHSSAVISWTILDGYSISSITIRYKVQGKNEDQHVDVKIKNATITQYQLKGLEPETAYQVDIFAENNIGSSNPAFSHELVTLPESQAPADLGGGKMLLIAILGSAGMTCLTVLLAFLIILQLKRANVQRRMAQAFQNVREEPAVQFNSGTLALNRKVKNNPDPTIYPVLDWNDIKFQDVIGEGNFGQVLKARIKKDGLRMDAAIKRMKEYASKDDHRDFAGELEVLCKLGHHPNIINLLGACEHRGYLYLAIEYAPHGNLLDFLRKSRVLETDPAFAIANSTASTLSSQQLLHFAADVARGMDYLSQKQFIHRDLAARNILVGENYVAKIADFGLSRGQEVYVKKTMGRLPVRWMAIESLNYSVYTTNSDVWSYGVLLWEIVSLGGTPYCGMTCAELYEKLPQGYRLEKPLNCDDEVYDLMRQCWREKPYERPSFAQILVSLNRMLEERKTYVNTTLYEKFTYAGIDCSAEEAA
Description: as §1

AURKA = AURKA (Homo sapiens (Human), UniProt O14965)
Description: as §1

CDK5/p35 = CDK5/p35 (Homo sapiens (Human), UniProt Q00535)
Description: as §1

IR = IR (Homo sapiens (Human), UniProt P06213)
Description: as §1

IGF-1R = IGF-1R (Homo sapiens (Human), UniProt P08069)
Description: as §1

SRPK1 = SRPK1 (Homo sapiens (Human), UniProt Q96SB4)
Description: as §1

EphA5 = EphA5 (Homo sapiens (Human), UniProt P54756)
Description: as §1

SGK1 = SGK1 (Homo sapiens (Human), UniProt O00141)
Description: as §1

SGK3 = SGK3 (Homo sapiens (Human), UniProt Q96BR1)
Description: as §1

CAMK2d = CAMK2d (Homo sapiens (Human), UniProt Q13557)
Sequence of CAMK2d (Q13557 whole entry): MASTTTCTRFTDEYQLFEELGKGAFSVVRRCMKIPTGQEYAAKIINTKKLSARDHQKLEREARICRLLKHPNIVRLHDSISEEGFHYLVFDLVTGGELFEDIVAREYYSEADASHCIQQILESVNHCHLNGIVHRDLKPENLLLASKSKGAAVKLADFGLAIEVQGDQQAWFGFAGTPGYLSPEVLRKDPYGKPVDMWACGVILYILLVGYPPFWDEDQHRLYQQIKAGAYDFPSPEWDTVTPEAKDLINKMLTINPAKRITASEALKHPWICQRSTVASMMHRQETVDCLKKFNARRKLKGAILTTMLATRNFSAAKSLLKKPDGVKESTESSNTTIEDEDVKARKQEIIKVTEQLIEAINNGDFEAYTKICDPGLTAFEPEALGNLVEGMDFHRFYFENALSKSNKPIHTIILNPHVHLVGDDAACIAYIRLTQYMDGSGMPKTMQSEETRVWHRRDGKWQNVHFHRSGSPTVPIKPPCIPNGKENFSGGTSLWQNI
Description: as §1

HIPK1 = HIPK1 (Homo sapiens (Human), UniProt Q86Z02)
Description: as §1

TLK2 = TLK2 (Homo sapiens (Human), UniProt Q86UE8)
Description: as §1

CAMK2b = CAMK2b (Homo sapiens (Human), UniProt Q13554)
Description: as §1

MuSK = MuSK (Homo sapiens (Human), UniProt O15146)
Description: as §1

MST2 = MST2 (Homo sapiens (Human), UniProt Q13188)
Description: as §1

TAK1 = TAK1 (Homo sapiens (Human), UniProt O43318)
Description: as §1

p38delta = p38delta (Homo sapiens (Human), UniProt O15264)
Description: as §1

DAPK3 = DAPK3 (Homo sapiens (Human), UniProt O43293)
Description: as §1

NEK3 = NEK3 (Homo sapiens (Human), UniProt P51956)
Sequence of NEK3 (P51956 whole entry): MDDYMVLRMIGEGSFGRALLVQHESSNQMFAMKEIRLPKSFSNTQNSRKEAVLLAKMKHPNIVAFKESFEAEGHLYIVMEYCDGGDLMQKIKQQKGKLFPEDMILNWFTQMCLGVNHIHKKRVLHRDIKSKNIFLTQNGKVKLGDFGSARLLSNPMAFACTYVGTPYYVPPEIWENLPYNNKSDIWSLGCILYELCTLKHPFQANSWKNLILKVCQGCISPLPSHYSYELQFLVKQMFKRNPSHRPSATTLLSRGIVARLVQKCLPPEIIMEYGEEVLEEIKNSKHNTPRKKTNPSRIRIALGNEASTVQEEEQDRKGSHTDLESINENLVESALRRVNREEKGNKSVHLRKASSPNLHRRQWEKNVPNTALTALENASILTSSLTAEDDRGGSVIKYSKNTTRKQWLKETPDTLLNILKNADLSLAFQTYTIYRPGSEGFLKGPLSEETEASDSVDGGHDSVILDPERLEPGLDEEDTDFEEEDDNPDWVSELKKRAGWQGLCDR
Description: as §1

PKCzeta = PKCzeta (Homo sapiens (Human), UniProt Q05513)
Description: as §1

NEK6 = NEK6 (Homo sapiens (Human), UniProt Q9HC98)
Description: as §1

| SMILES | Avg POC (MKK6) [POC] | Avg POC (TSSK1) [POC] | Avg POC (PrKX) [POC] | Avg POC (HIPK2) [POC] | Avg POC (FGFR4) [POC] | Avg POC (IGF-1R Activated) [POC] | Avg POC (MKK7) [POC] | Avg POC (ErbB4) [POC] | Avg POC (EphB4) [POC] | Avg POC (RIPK2) [POC] | Avg POC (NEK11) [POC] | Avg POC (Ron) [POC] | Avg POC (ITK) [POC] | Avg POC (CDK2/cyclinE) [POC] | Avg POC (CLK2) [POC] | Avg POC (CLK3) [POC] | Avg POC (BrSK1) [POC] | Avg POC (TrkA) [POC] | Avg POC (PKCalpha) [POC] | Avg POC (Tie2) [POC] | further results |
| --- | --- | --- | --- | --- | --- | --- | --- | --- | --- | --- | --- | --- | --- | --- | --- | --- | --- | --- | --- | --- | --- |
| COCCN1C[C@@H](NC(=O)Nc2c(C)c(-c3ccnc(C)c3)nn2-c2ccccc2)[C@H](c2ccc(F)c(F)c2)C1 [Example 2, 1-((3S,4R)-4-(3,4-difluorophenyl)-1-(2-methoxyethyl)pyrrolidin-3-yl)-3-(4-methyl-3-(2-methylpyridin-4-yl)-1-phenyl-1H-pyrazol-5-yl)urea] | 106.5 | 105 | 110.5 | 95 | 105.5 | 102 | 97.5 | 98 | 104 | 105.5 | 97 | 122.5 | 111 | 103 | 125 | 94 | 104 | 0.5 | 96 | 71.5 | Avg POC (AURKA): 116 POC; Avg POC (CDK5/p35): 113 POC; Avg POC (IR): 74.5 POC; Avg POC (IGF-1R): 63 POC; Avg POC (SRPK1): 97.5 POC; Avg POC (EphA5): 102.5 POC; Avg POC (SGK1): 98.5 POC; Avg POC (SGK3): 106 POC; Avg POC (CAMK2d): 91.5 POC; Avg POC (HIPK1): 96.5 POC; Avg POC (TLK2): 92.5 POC; Avg POC (CAMK2b): 90.5 POC; Avg POC (MuSK): 103.5 POC; Avg POC (MST2): 99.5 POC; Avg POC (TAK1): 93 POC; Avg POC (p38delta): 107.5 POC; Avg POC (DAPK3): 107 POC; Avg POC (NEK3): 97 POC; Avg POC (PKCzeta): 100 POC; Avg POC (NEK6): 105.5 POC |
| COCCN1C[C@@H](NC(=O)Nc2c(C)c(-c3cnc(C)nc3)nn2-c2ccccc2)[C@H](c2cc(F)cc(F)c2)C1 [Example 14, 1-((3S,4R)-4-(3,5-difluorophenyl)-1-(2-methoxyethyl)pyrrolidin-3-yl)-3-(4-methyl-3-(2-methylpyrimidin-5-yl)-1-phenyl-1H-pyrazol-5-yl)urea] | 99.5 | 104.5 | 94 | 99 | 110 | 106 | 111 | 101.5 | 96 | 93.5 | 91 | 104 | 101 | 98.5 | 111.5 | 94 | 94 | 1 | 93 | 71 | Avg POC (AURKA): 106 POC; Avg POC (CDK5/p35): 115.5 POC; Avg POC (IR): 84 POC; Avg POC (IGF-1R): 79 POC; Avg POC (SRPK1): 109.5 POC; Avg POC (EphA5): 101.5 POC; Avg POC (SGK1): 99 POC; Avg POC (SGK3): 107 POC; Avg POC (CAMK2d): 105.5 POC; Avg POC (HIPK1): 97.5 POC; Avg POC (TLK2): 93.5 POC; Avg POC (CAMK2b): 93 POC; Avg POC (MuSK): 98.5 POC; Avg POC (MST2): 101 POC; Avg POC (TAK1): 88 POC; Avg POC (p38delta): 102.5 POC; Avg POC (DAPK3): 105.5 POC; Avg POC (NEK3): 101 POC; Avg POC (PKCzeta): 99.5 POC; Avg POC (NEK6): 102 POC |
